Reference: patent US7326420B2, “Benzoyl peroxide compositions having increased potency” (priority 2001, dated 2008)

How the values were obtained:
[1] = Polymerization of tetraethylene glycol dimethacrylate (gel formation) as a test of BP radical activity; assay type: physicochemical; settings: agent in combination with BP, 3% w/w in tetraethylene glycol dimethacrylate, oven 90 to 100 degrees Celsius
Source text: Methods: Polymerization of tetra ethylene glycol dimethacrylate was used as a test of BP radical activity. Solutions of BP, antibiotics, and BP and antibiotics were made at 3% w/w in tetraethylene glycol dimethacrylate. All of the antibiotics except erythromycin (ERY) were obtained from prescription pills, which were crushed in a crucible. The portion of the pills that disolved in tetraethylene glycol dimethacrylate were used in the experiment. ERY was obtained in powdered form from Benzamycin® acne treatments. Aliquots of ten drops of these solutions were placed in an eight well plastic plate. The samples were heated in an oven that maintained a temperature range between 90 to 100 degrees Celsius. After various amounts of time the samples were taken out of the oven and tested for gel formation. Polymerization of tetraethylene glycol dimethacrylate was detected visually by swirling a spatula in the solutions. Gelling constituted an indicator of BP radical activity.

[2] = tested on: Staphylococcus aureus isolates; assay: Checkerboard microdilution susceptibility test (MIC alone and in combination, FICI); assay type: cell-based
Procedure: (§1) The object of this preliminary study was to discover the in vitro effect of the addition of benzoyl peroxide to terbinafine when tested against Candida albicans, Pseudomonas aeruginosa, and Staphylococcus aureus isolates, using a checkerboard microdilution method. […]
(§2) In this study, ten serial dilutions of terbinafine (starting at 32 μg/ml) and benzoyl peroxide (starting at 3%) were tested alone and in combination against ten Candida albicans isolates from the culture collection at the Center for Medical Mycology. Both susceptible and fluconazole-resistant strains were included. Two strains each of Pseudomonas aeruginosa and Staphylococcus aureus were also tested.
(§3) The individual minimum inhibitory concentrations (MICs) of terbinafine and BP against each isolate were determined according to the NCCLS M27-A2 and M07-A6 standards for yeasts and aerobic bacteria, respectively.
(§4) The effect of combining benzoyl peroxide with terbinafine was evaluated using a checkerboard assay. This test method is a modification of the microdilution antifungal susceptibility test (NCCLS M27A2) wherein two antifungal agents are combined in varying concentrations to determine whether they have a synergistic, additive, or antagonistic effect on the respective minimum inhibitory concentration (MIC) values.
(§5) Two antifungal agents were serially diluted in RPMI to produce ten concentrations of the drugs under investigation. The range was chosen to include achievable serum levels of the drugs. The two drugs were then combined into wells of a microtiter plate so that the concentration of one drug increases as that of the other decreased. Two rows consisting of serial dilutions of each individual drug were also included. Comparison of the MICs of the individual antifungal agents to the MIC of the combined agents was indicative of their relative efficacy.
(§6) [formula] The combination of two drugs was reported as synergistic (<0.5), additive (0.5<FICI <1.0), indifferent (1.0<FICI <4.0), or antagonistic (.4.0).

[3] = tested on: Candida albicans isolates; assay: as above; assay type: cell-based
Procedure: as §1, §2, §3, §4, §5, §6

[4] = tested on: Pseudomonas aeruginosa isolates; assay: as above; assay type: cell-based
Procedure: as §1, §2, §3, §4, §5, §6

[5] = S. aureus (n = 2), individual compound
[6] = C. albicans (n = 10), individual compound
[7] = Ps. aeruginosa (n = 2), individual compound

CC[C@H]1OC(=O)[C@H](C)[C@@H](O[C@H]2C[C@@](C)(OC)[C@@H](O)[C@H](C)O2)[C@H](C)[C@@H](O[C@@H]2O[C@H](C)C[C@H](N(C)C)[C@H]2O)[C@](C)(O)C[C@@H](C)C(=O)[C@H](C)[C@@H](O)[C@]1(C)O [ERY, erythromycin]
effect of the agent on BP radical activity (speed of polymerization of tetraethylene glycol dimethacrylate) [1]: polymerize the fastest

O=C(OOC(=O)c1ccccc1)c1ccccc1 [Benzoyl Peroxide, Benzoyl peroxide]
number of isolates with MIC of Benzoyl Peroxide 1.5% [2, 5]: 2
number of isolates with MIC of Benzoyl Peroxide 0.38% [3, 6]: 6
number of isolates with MIC of Benzoyl Peroxide 3.0% [3, 6]: 4
number of isolates with MIC of Benzoyl Peroxide 0.09% [4, 7]: 2

N[C@@H]1[C@H]2CN(c3nc4c(cc3F)c(=O)c(C(=O)O)cn4-c3ccc(F)cc3F)C[C@@H]12 [trovofloxacin]
effect of the agent on BP radical activity (speed of polymerization of tetraethylene glycol dimethacrylate) [1]: did not augment BP radical activity

CN(C/C=C/C#CC(C)(C)C)Cc1cccc2ccccc12 [Terbinafine, terbinafine]
number of isolates with MIC of Terbinafine >32 μg/ml [2, 5]: 2
MIC ([2]; Staphylococcus aureus, read-out: MIC of terbinafine alone): > 32 µg/mL
number of isolates with MIC of Terbinafine 8 μg/ml [3, 6]: 1
number of isolates with MIC of Terbinafine >32 μg/ml [3, 6]: 9
MIC ([3]; Candida albicans, read-out: MIC of terbinafine alone): > 32 µg/mL
number of isolates with MIC of Terbinafine >32 μg/ml [4, 7]: 2
MIC ([4]; Pseudomonas aeruginosa, read-out: MIC of terbinafine alone): > 32 µg/mL
